For series [1], the system named is U-251. Kind of series: Antiproliferative activity against human U251 cells. Format: functional, cell-based.
The nature of series [2]: Tmax in BALB/c mouse at 5 mg/kg, iv. Type of series: ADME, organism-based. Further details: dose 5 mg/kg, route intravenous. The following applies: in vivo.
Series [3] can be described thus: Antiproliferative activity against human MES-SA cells. Format: functional, cell-based.
The nature of series [4]: CSF penetration index, ratio of AUC (0 to infinity) in CSF to plasma of Sprague-Dawley rat at 4 mg/kg, iv. Format: ADME, organism-based. Further details: dose 4 mg/kg, route intravenous.
Series [5] is described as follows: Antiproliferative activity against human doxorubicin-resistant MES-SA/Dx5-Rx1 cells. Format: functional.
The test system of another series is Mus musculus. Nature of the series: AUC (0 to infinity) in BALB/c mouse at 5 mg/kg, iv. Type of series: ADME, organism-based, Brain. Conditions: in vivo. Details: time infinity, dose 5 mg/kg, route intravenous.
Series [6] in a line: Brain penetration index, ratio of AUC (0 to infinity) in brain to plasma of BALB/c mouse at 5 mg/kg, iv. Details: dose 5 mg/kg, route intravenous. Type of series: ADME, organism-based.
Series [7] is described as follows: Half life in BALB/c mouse at 5 mg/kg, iv. Details: dose 5 mg/kg, route intravenous. Type of series: ADME, organism-based. The following applies: in vivo.
Series [8] is described as follows: Fraction unbound in BALB/c mouse brain at 5 mg/kg, iv. Further details: dose 5 mg/kg, route intravenous. Format: ADME, organism-based.
For series [9], the system named is U-251. Nature of the series: Antitumor activity against human U251 cells infected in athymic mouse assessed as increase in mouse survival at 1.1 to 2.5 mg/kg relative to control. Type of series: functional. Conditions: dose mg/kg 1.1-2.5.
Series [10] relates to SF-295. Nature of the series: Antitumor activity against human SF295 cells infected in athymic mouse assessed as increase in mouse survival at 0.36 to 0.80 mg/kg relative to control. Type of series: functional, organism-based.
Series [11] relates to SF-295. Kind of series: Antiproliferative activity against human SF295 cells. Type of series: functional, cell-based.

Structures can show the parent of a compound that is named as a salt. The source made the active and inactive calls. No cut-off for these calls is given here. Some results are limits rather than exact numbers.

`C=C1C[C@@H]2CC[C@@]34C[C@H]5O[C@H]6[C@@H](O3)[C@H]3O[C@H](CC[C@@H]3O[C@H]6[C@H]5O4)CC(=O)C[C@@H]3[C@@H](OC)[C@@H](C[C@@H](CN4CCOCC4)OC)O[C@H]3C[C@H]3O[C@@H](CC[C@@H]1O2)C[C@@H](C)C3=C`: the 50% inhibitory concentration (IC50) in the series on U-251 [1] is 1.97 nM; in [3], 0.16 nM; in series [5] it was 1.91 nM. Further, in series [2], the Tmax was 4.8 min. Further, the concentration ratio (Kp) in [4] came out at 2.2. The compound also came in with an AUC in the series on Mus musculus of 1351 ng·h/g. For the same compound, the “Ratio AUC” value in series [6] was determined as 1.4 mL/g. Also, the half-life in series [7] is 0.9 h. In addition, the fraction unbound in series [8] turned out to be 0.113.
Turning to `C=C(C)CN(CC)C[C@H](C[C@H]1O[C@H]2C[C@H]3O[C@@H](CC[C@@H]4O[C@@H](CC[C@@]56C[C@H]7O[C@H]8[C@@H](O5)[C@H]5O[C@H](CC[C@@H]5O[C@H]8[C@H]7O6)CC(=O)C[C@@H]2[C@H]1OC)CC4=C)C[C@@H](C)C3=C)OC`, the IC50 in the series on U-251 [1] turned out to be 3.74 nM; in [3] it was 0.23 nM; in series [5] it was 2.73 nM.
On the same counts, the results for `C=C1C[C@@H]2CC[C@@]34C[C@H]5O[C@H]6[C@@H](O3)[C@H]3O[C@H](CC[C@@H]3O[C@H]6[C@H]5O4)CC(=O)C[C@@H]3[C@@H](OC)[C@@H](CCNCC(F)F)O[C@H]3C[C@H]3O[C@@H](CC[C@@H]1O2)C[C@@H](C)C3=C` are 4.05 nM, 1.91 nM and 31.9 nM.
Regarding `C=C1C[C@@H]2CC[C@@]34C[C@H]5O[C@H]6[C@@H](O3)[C@H]3O[C@H](CC[C@@H]3O[C@H]6[C@H]5O4)CC(=O)C[C@@H]3[C@@H](OC)[C@@H](CCCN4CCOCC4)O[C@H]3C[C@H]3O[C@@H](CC[C@@H]1O2)C[C@@H](C)C3=C`, the results for the IC50 (in the series on U-251 [1]; in [3]; in series [5]) were 1.44 nM, 0.083 nM and 1.3 nM, respectively. For the same compound, the time of peak concentration (Tmax) in series [2] came to 15 min. Also, the AUC in the series on Mus musculus stood at 10200 ng·h/g. For the same compound, the “Ratio AUC” value in series [6] came to 7.7 mL/g. Besides, the half-life in series [7] was 4.6 h. The compound also yielded a free fraction (fraction unbound) in [8] of 0.101.
On to `C=C1C[C@@H]2CC[C@@]34C[C@H]5O[C@H]6[C@@H](O3)[C@H]3O[C@H](CC[C@@H]3O[C@H]6[C@H]5O4)CC(=O)C[C@@H]3[C@@H](OC)[C@@H](C[C@@H](CN4CCC(C(F)(F)F)CC4)OC)O[C@H]3C[C@H]3O[C@@H](CC[C@@H]1O2)C[C@@H](C)C3=C`, for which the IC50 in the series on U-251 [1] is 0.33 nM; in series [3] it was 0.14 nM; in series [5], 0.83 nM.
As for `C=C(C)CN1CCO[C@@H](C[C@H]2O[C@H]3C[C@H]4O[C@@H](CC[C@@H]5O[C@@H](CC[C@@]67C[C@H]8O[C@H]9[C@@H](O6)[C@H]6O[C@H](CC[C@@H]6O[C@H]9[C@H]8O7)CC(=O)C[C@@H]3[C@H]2OC)CC5=C)C[C@@H](C)C4=C)C1`, the half-maximal inhibitory concentration (IC50) was 0.5 nM in the series with U-251 [1], 0.25 nM in series [3], 1.53 nM in series [5] and 0.26 nM in the series on SF-295 [11]. The Tmax in [2] is 4.8 min. Also, the Activity in the series on U-251 [9] was more than 175%. Besides, the result with SF-295 [10] was Active. The compound also returned an AUC in the series on Mus musculus of 1362 ng·h/g. The “Ratio AUC” value in [6] is 1.8 mL/g. The compound further gave a half-life in series [7] of 1.2 h. In [8], the fraction unbound stood at 0.024.
For `C#CCN(C)C[C@H](C[C@H]1O[C@H]2C[C@H]3O[C@@H](CC[C@@H]4O[C@@H](CC[C@@]56C[C@H]7O[C@H]8[C@@H](O5)[C@H]5O[C@H](CC[C@@H]5O[C@H]8[C@H]7O6)CC(=O)C[C@@H]2[C@H]1OC)CC4=C)C[C@@H](C)C3=C)OC`, the IC50 in the series on U-251 [1] amounted to 0.18 nM; in series [3], 0.18 nM; in [5], 0.95 nM; in the series with SF-295 [11], 0.41 nM.
Consider `C=C1C[C@@H]2CC[C@@]34C[C@H]5O[C@H]6[C@@H](O3)[C@H]3O[C@H](CC[C@@H]3O[C@H]6[C@H]5O4)CC(=O)C[C@@H]3[C@@H](OC)[C@@H](CCN4CCOCC4)O[C@H]3C[C@H]3O[C@@H](CC[C@@H]1O2)C[C@@H](C)C3=C`, for which the results for the IC50 (in the series with U-251 [1]; in [3]; in series [5]) were 1.26 nM, 0.12 nM and 2.52 nM, respectively.
On the same counts, the results for `C=C1C[C@@H]2CC[C@@]34C[C@H]5O[C@H]6[C@@H](O3)[C@H]3O[C@H](CC[C@@H]3O[C@H]6[C@H]5O4)CC(=O)C[C@@H]3[C@@H](OC)[C@@H](CC(=O)CN4CCOCC4)O[C@H]3C[C@H]3O[C@@H](CC[C@@H]1O2)C[C@@H](C)C3=C` are 0.88 nM, 0.25 nM and 3.12 nM.
As for `CC(=O)O[C@H]1C(=O)[C@@]2(C)[C@H]([C@H](OC(=O)c3ccccc3)[C@]3(O)C[C@H](OC(=O)[C@H](O)[C@@H](NC(=O)c4ccccc4)c4ccccc4)C(C)=C1C3(C)C)[C@]1(OC(C)=O)CO[C@@H]1C[C@@H]2O` [PACLITAXEL], the values for the IC50 (in [5]; with SF-295 [11]) were more than 1000 nM and 24.6 nM, respectively.
Consider `C=C1C[C@@H]2CC[C@@]34C[C@H]5O[C@H]6[C@@H](O3)[C@H]3O[C@H](CC[C@@H]3O[C@H]6[C@H]5O4)CC(=O)C[C@@H]3[C@@H](OC)[C@@H](C[C@H](O)CN)O[C@H]3C[C@H]3O[C@@H](CC[C@@H]1O2)C[C@@H](C)C3=C` [ERIBULIN MESYLATE], for which the 50% inhibitory concentration (IC50) came to 5.87 nM in the series with U-251 [1] and 27.9 nM with SF-295 [11]. The time of peak concentration (Tmax) in [2] amounted to 30 min. The AUC with Mus musculus was 435 ng·h/g. Also, the “Ratio AUC” value in [6] was 0.55 mL/g. This compound also gave a half-life in series [7] of 46 h.
Regarding `C=C1C[C@@H]2CC[C@@]34C[C@H]5O[C@H]6[C@@H](O3)[C@H]3O[C@H](CC[C@@H]3O[C@H]6[C@H]5O4)CC(=O)C[C@@H]3[C@@H](OC)[C@@H](C[C@@H](COC)OC)O[C@H]3C[C@H]3O[C@@H](CC[C@@H]1O2)C[C@@H](C)C3=C`, the half-maximal inhibitory concentration (IC50) with U-251 [1] was 0.74 nM; in [3] it was 0.24 nM.
Turning to `C=C(C)CN(CC)CC[C@H]1O[C@H]2C[C@H]3O[C@@H](CC[C@@H]4O[C@@H](CC[C@@]56C[C@H]7O[C@H]8[C@@H](O5)[C@H]5O[C@H](CC[C@@H]5O[C@H]8[C@H]7O6)CC(=O)C[C@@H]2[C@H]1OC)CC4=C)C[C@@H](C)C3=C`, the results for the IC50 (in the series on U-251 [1]; in [3]; in [5]) were 0.61 nM, 0.23 nM and 2.89 nM, respectively.
On the same counts, the results for `C=C1C[C@@H]2CC[C@@]34C[C@H]5O[C@H]6[C@@H](O3)[C@H]3O[C@H](CC[C@@H]3O[C@H]6[C@H]5O4)CC(=O)C[C@@H]3[C@@H](OC)[C@@H](CCN4CCC(C(F)(F)F)CC4)O[C@H]3C[C@H]3O[C@@H](CC[C@@H]1O2)C[C@@H](C)C3=C` are 0.28 nM, 0.11 nM and 0.75 nM.
With `C=C1C[C@@H]2CC[C@@]34C[C@H]5O[C@H]6[C@@H](O3)[C@H]3O[C@H](CC[C@@H]3O[C@H]6[C@H]5O4)CC(=O)C[C@@H]3[C@@H](OC)[C@@H](C[C@@H](CN4CC(C)CC(C)C4)OC)O[C@H]3C[C@H]3O[C@@H](CC[C@@H]1O2)C[C@@H](C)C3=C` (some centres not stated), the half-inhibitory concentration (IC50) in the series on U-251 [1] was 2.55 nM; in series [3], 0.13 nM; in series [5] it was 2.41 nM; with SF-295 [11] it was 0.1 nM. The Tmax in series [2] is 4.8 min. In addition, the AUC in the series with Mus musculus came to 3108 ng·h/g. In [6], the “Ratio AUC” value is 1.7 mL/g. The half-life in series [7] is 5.3 h. The compound also showed a fraction unbound in series [8] of 0.034.

What is called IC50 is the concentration that gives 50% inhibition. A lower IC50 goes with greater potency in that assay. The Tmax is the time from dosing to the highest level. What is called Kp is tissue or fluid exposure divided by exposure in the circulation. The term half-life denotes how long it takes for the measured level to halve. The fraction unbound is free concentration divided by total concentration.
